Data taken from paper PMC9224473 (International Journal of Molecular Sciences, 2022).
In brackets after ≈: the same amount, converted by molar mass. Read-outs that look alike come from different tables or passages of the source.

How the values were obtained:
[1] = system: P. aeruginosa ATCC 15442; assay: MIC, broth microdilution, standard strain; assay type: cell-based, Pseudomonas aeruginosa; conditions: 35 °C; for MIC: Pseudomonas aeruginosa, ATCC15442, 19 h
[2] = system: S. aureus NCTC 4163; assay: MIC, broth microdilution, standard strain; assay type: cell-based, Staphylococcus aureus; conditions: 35 °C; for MIC: Staphylococcus aureus, NCTC4163, 19 h
[3] = system: S. aureus ATCC 29213; assay: MIC, broth microdilution, standard strain; assay type: cell-based, Staphylococcus aureus; conditions: 35 °C; for MIC: Staphylococcus aureus, ATCC29213, 19 h
[4] = system: S. aureus ATCC 25923; assay: MIC, broth microdilution, standard strain; assay type: cell-based, Staphylococcus aureus; conditions: 35 °C; for MIC: Staphylococcus aureus, ATCC25923, 19 h
[5] = system: standard bacteria strains; assay: Antimicrobial screening (MIC), standard bacteria strains; assay type: cell-based; conditions: MIC evaluation
Protocol: Obtained compounds were examined for antimicrobial potency. Firstly, all of them were screened for their minimal inhibitory concentrations (MICs). A suitable set of bacteria was used, including representative standard Gram-positive and Gram-negative rods (Table 2 and Table 3). For clarity, results are presented for menthol and thymol derivatives separately.
The antimicrobial assays were conducted using reference strains of bacteria derived from international microbe collections: American Type Culture Collection (ATCC) and National Collection of Type Culture (NCTC). The following standard strains of bacteria were used: Gram-positive—Staphylococcus aureus NCTC 4163, Staphylococcus aureus ATCC 25923, Staphylococcus aureus ATCC 6538, Staphylococcus aureus ATCC 29213, Staphylococcus epidermidis ATCC 12228, Staphylococcus epidermidis ATCC 35984, Gram-negative: Escherichia coli ATCC 25922, Pseudomonas aeruginosa ATCC 15442. […] Antimicrobial activity was examined by the Minimal Inhibitory Concentration (MIC) method under standard procedures provided by CLSI with some modifications. MIC was determined by the two-fold serial broth microdilution method in 96-well microtitration plates using Mueller–Hinton II broth medium (Becton Dickinson, Franklin Lakes, NJ, USA). The final inoculum of all studied bacteria was 10^6 CFU/mL (colony forming unit per millilitre). The stock solution of tested compounds was prepared in dimethyl sulfoxide (DMSO) and diluted to a maximum of 1% of solvent content with a sterile medium.

[6] = system: SW620 (human metastatic colon cancer); assay: MTT cytotoxicity assay; assay type: cell-based; conditions: mean SD
Protocol: (§1) The human cell lines SW480 (primary colon cancer), SW620 (lymph node metastatic colon cancer from the same patient as primary cancer cells), HCT116 (colon carcinoma), HepG2 (liver cancer), and HaCaT (immortalized keratinocytes) were obtained from the American Type Culture Collection (ATCC, Rockville, MD, USA). The SW480, SW620 and HCT116 cells were grown in MEM (ThermoSci, Waltham, MA, USA), HepG2 and HaCaT in DMEM High Glucose (Biowest SAS, Nuaillé, France) supplemented with 10% foetal bovine serum (FBS), HEPES (20 mM), and antibiotics (100 U mL^−1 of Penicillin and 100 μg mL^−1 of Streptomycin). The cells were incubated in a humidified incubator at 37 °C/5% CO2, until 80–90% confluence was reached.
The cell viability was assessed by using of MTT salt [3-(4,5-dimethylthiazol-2-yl)-2,5-diphenyltetrazolium bromide] converted by mitochondrial dehydrogenase, occurring in living cells. […] The untreated cells were used as the control.
(§2) Subsequently, the medium was removed and dimethyl sulfoxide (DMSO) with isopropanol (1:1) was added to dissolve the formazan crystals. The optical density was measured using UVM 340 reader (ASYS Hitech GmbH, Eugendorf, Austria) at a wavelength of 570 nm. The experiments were repeated three times. The cell viability was calculated as the percent of MTT reduced in treated cells versus control cells (untreated cells). The number of viable cells cultured without tested compounds was assumed as 100%. A decreased relative MTT level indicates decreased cell viability. The IC50 values were estimated using CompuSyn version 1.0.

[7] = system: S. aureus ATCC 6538; assay: MIC, broth microdilution, standard strain; assay type: cell-based, Staphylococcus aureus; conditions: 35 °C; for MIC: Staphylococcus aureus, ATCC6538, 19 h
[8] = system: SW480 (human primary colon cancer); assay: MTT cytotoxicity assay; assay type: cell-based; conditions: mean SD
Protocol: as §1
(§3) The cell viability was assessed by using of MTT salt [3-(4,5-dimethylthiazol-2-yl)-2,5-diphenyltetrazolium bromide] converted by mitochondrial dehydrogenase, occurring in living cells. The cells were seeded in 96-well plates at a density of 1 × 10^4 cells per well and allowed to adhere for 24 h at 37 °C in a CO2 humidified incubator. […]. The untreated cells were used as the control.
as §2, with “After 72 h incubation, the medium was replaced with 200 µL per well of free-serum medium containing 0.5 mg mL^−1 MTT and incubated for 4 h at 37 °C in a CO2 humidified incubator. Subsequently,” for “Subsequently,”

[9] = system: HaCaT (human immortal keratinocyte cell line); assay: MTT cytotoxicity assay; assay type: cell-based; conditions: 72 h, mean SD, read-out: IC50 HaCaT (normal cells)
Protocol: as §1, §3
as §2, with “After 72 h incubation, the medium was replaced with 200 µL per well of free-serum medium containing 0.5 mg mL^−1 MTT and incubated for 4 h at 37 °C in a CO2 humidified incubator. Subsequently,” for “Subsequently,”

[10] = system: HCT116 (human colon cancer); assay: MTT cytotoxicity assay; assay type: cell-based; conditions: mean SD
Protocol: as §1, §3
as §2, with “After 72 h incubation, the medium was replaced with 200 µL per well of free-serum medium containing 0.5 mg mL^−1 MTT and incubated for 4 h at 37 °C in a CO2 humidified incubator. Subsequently,” for “Subsequently,”

[11] = system: HepG2 (human liver cancer); assay: MTT cytotoxicity assay; assay type: cell-based; conditions: mean SD
Protocol: as §1, §3
as §2, with “After 72 h incubation, the medium was replaced with 200 µL per well of free-serum medium containing 0.5 mg mL^−1 MTT and incubated for 4 h at 37 °C in a CO2 humidified incubator. Subsequently,” for “Subsequently,”

[12] = system: S. epidermidis ATCC 12228; assay: MIC, broth microdilution, standard strain; assay type: cell-based, Staphylococcus epidermidis; conditions: 35 °C; for MIC: Staphylococcus epidermidis, ATCC12228, 19 h
[13] = system: S. epidermidis ATCC 35984; assay: MIC, broth microdilution, standard strain; assay type: cell-based, Staphylococcus epidermidis; conditions: 35 °C; for MIC: Staphylococcus epidermidis, ATCC35984, 19 h
[14] = system: E. coli ATCC 25922; assay: MIC, broth microdilution, standard strain; assay type: cell-based, Escherichia coli; conditions: 35 °C; for MIC E. coli ATCC 25922: 19 h; for MIC: Escherichia coli, ATCC25922, 19 h
[15] = system: S. epidermidis KR 4243; assay: MIC, broth microdilution, clinical strain; assay type: cell-based, Staphylococcus epidermidis; conditions: Staphylococcus epidermidis, KR4243, 19 h, 35 °C
[16] = system: S. pasteuri KR 4358; assay: MIC, broth microdilution, clinical strain; assay type: cell-based, Staphylococcus pasteuri; conditions: Staphylococcus pasteuri, KR4358, 19 h, 35 °C
[17] = system: E. coli 510; assay: MIC, broth microdilution, clinical strain; assay type: cell-based, Escherichia coli; conditions: Escherichia coli, 510, 19 h, 35 °C
[18] = system: S. aureus T 5591; assay: MIC, broth microdilution, clinical strain; assay type: cell-based, Staphylococcus aureus; conditions: Staphylococcus aureus, T5591, 19 h, 35 °C
[19] = system: E. coli 520; assay: MIC, broth microdilution, clinical strain; assay type: cell-based, Escherichia coli; conditions: Escherichia coli, 520, 19 h, 35 °C
[20] = system: P. aeruginosa 659; assay: MIC, broth microdilution, clinical strain; assay type: cell-based, Pseudomonas aeruginosa; conditions: Pseudomonas aeruginosa, 659, read-out: MIC P. aeruginosa 659, 19 h, 35 °C
[21] = system: E. coli 600; assay: MIC, broth microdilution, clinical strain; assay type: cell-based, Escherichia coli; conditions: Escherichia coli, 600, 19 h, 35 °C
[22] = system: S. aureus T 5595; assay: MIC, broth microdilution, clinical strain; assay type: cell-based, Staphylococcus aureus; conditions: Staphylococcus aureus, T5595, 19 h, 35 °C

Molecule | Antimicrobial activity (in words) [5] | MIC E. coli ATCC 25922 [14] | MIC [1] | MIC [2] | MIC [3] | MIC [15] | MIC [16] | MIC [4] | MIC [17] | MIC [18] | MIC [19] | IC50 ([6]; Homo sapiens, SW-620, 72 h) | MIC [7] | IC50 ([8]; Homo sapiens, SW480, 72 h) | IC50 ([9]; Homo sapiens, HaCaT) | IC50 ([10]; Homo sapiens, HCT-116, 72 h) | IC50 ([11]; Homo sapiens, HepG2, 72 h) | MIC [12] | MIC [13] | MIC [14] | also measured
2-(2-isopropyl-5-methylphenoxy)-2-oxobutyl-1-cyclopropyl-6-fluoro-7-{4-[2-(2-isopropyl-5-methylphenoxy)-2-oxobutyl]piperazin-1-yl}-4-oxo-1,4-dihydroquinoline-3-carboxylate [Compound 15] | rather inactive | 128 µg/mL | – | – | – | – | – | – | – | – | – | – | – | – | – | – | – | – | – | – | MIC P. aeruginosa ATCC 15442 ([1]; 19 h): >256 µg/mL; MIC S. aureus NCTC 4163 ([2]; 19 h): 64 µg/mL; MIC S. aureus ATCC 29213 ([3]; 19 h): 256 µg/mL; MIC S. aureus ATCC 25923 ([4]; 19 h): 64 µg/mL; IC50 ([6]; 72 h): 57.4 ± 3.6 µM; MIC S. aureus ATCC 6538 ([7]; 19 h): 128 µg/mL; IC50 ([8]; 72 h): 40.8 ± 4.2 µM; IC50 [9]: 67.1 ± 4.6 µM; IC50 ([10]; 72 h): 48.2 ± 5.3 µM; IC50 ([11]; 72 h): 61.8 ± 1.5 µM; MIC S. epidermidis ATCC 12228 ([12]; 19 h): 128 µg/mL; MIC S. epidermidis ATCC 35984 ([13]; 19 h): 128 µg/mL
CC(C)[C@@H]1CC[C@@H](C)C[C@H]1OC(=O)CCCN1CCN(c2cc3c(cc2F)c(=O)c(C(=O)O)cn3C2CC2)CC1 [Compound 4, 1-cyclopropyl-6-fluoro-7-{4-[4-((1R,2S,5R)-2-isopropyl-5-methylcyclohexyloxy)-4-oxobutyl]piperazin-1-yl}-4-oxo-1,4-dihydroquinoline-3-carboxylic acid] | – | 4 µg/mL (≈ 7.2 µM) | 64 µg/mL (≈ 115 µM) | 4 µg/mL (≈ 7.2 µM) | 4 µg/mL (≈ 7.2 µM) | 4 µg/mL (≈ 7.2 µM) | 4 µg/mL (≈ 7.2 µM) | 4 µg/mL (≈ 7.2 µM) | 256 µg/mL (≈ 461 µM) | 4 µg/mL (≈ 7.2 µM) | 8 µg/mL (≈ 14.4 µM) | 54.3 ± 4.1 µM | 4 µg/mL (≈ 7.2 µM) | 36.8 ± 2.6 µM | 30.5 ± 2.4 µM | 24.2 ± 0.1 µM | 35.1 ± 4.4 µM | 4 µg/mL (≈ 7.2 µM) | 4 µg/mL (≈ 7.2 µM) | 2 to 4 µg/mL (≈ 3.6 to 7.2 µM) | MIC [20]: 256 µg/mL (≈ 461 µM); MIC [21]: 4 µg/mL (≈ 7.2 µM); MIC [22]: 4 µg/mL (≈ 7.2 µM)
Cc1ccc(C(C)C)c(OC(=O)CCCCCN2CCN(c3cc4c(cc3F)c(=O)c(C(=O)O)cn4C3CC3)CC2)c1 [Compound 14, 1-cyclopropyl-6-fluoro-7-{4-[6-(2-isopropyl-5-methylphenoxy)-6-oxohexyl]piperazin-1-yl}-4-oxo-1,4-dihydroquinoline-3-carboxylic acid] | – | 2 µg/mL (≈ 3.46 µM) | 16 µg/mL (≈ 27.7 µM) | 1 µg/mL (≈ 1.73 µM) | 2 µg/mL (≈ 3.46 µM) | 2 µg/mL (≈ 3.46 µM) | 2 µg/mL (≈ 3.46 µM) | 1 µg/mL (≈ 1.73 µM) | 128 µg/mL (≈ 222 µM) | 4 µg/mL (≈ 6.92 µM) | 16 µg/mL (≈ 27.7 µM) | 53.1 ± 0.3 µM | 2 µg/mL (≈ 3.46 µM) | 35.2 ± 1.2 µM | 31.8 ± 1.9 µM | 38.1 ± 3.4 µM | 44.4 ± 3.5 µM | 1 µg/mL (≈ 1.73 µM) | 1 µg/mL (≈ 1.73 µM) | 2 to 4 µg/mL (≈ 3.46 to 6.92 µM) | MIC [20]: 64 µg/mL (≈ 111 µM); MIC [21]: 8 µg/mL (≈ 13.8 µM); MIC [22]: 2 µg/mL (≈ 3.46 µM)
CC(C)[C@@H]1CC[C@@H](C)C[C@H]1OC(=O)CCCCCOC(=O)c1cn(C2CC2)c2cc(N3CCN(CCCCCC(=O)O[C@@H]4C[C@H](C)CC[C@H]4C(C)C)CC3)c(F)cc2c1=O [Compound 8, 6-((1R,2S,5R)-2-isopropyl-5-methylcyclohexyloxy)-6-oxohexyl-1-cyclopropyl-6-fluoro-7-{4-[6-((1R,2S,5R)-2-isopropyl-5-methylcyclohexyloxy)-6-oxohexyl]piperazin-1-yl}-4-oxo-1,4-dihydroquinoline-3-carboxylate] | rather inactive | – | > 256 µg/mL | > 256 µg/mL | > 256 µg/mL | – | – | > 256 µg/mL | – | – | – | 48.7 ± 2.8 µM | > 256 µg/mL | 78.2 ± 5.8 µM | 33.4 ± 3.8 µM | 31.6 ± 7.4 µM | 30.2 ± 1.9 µM | > 256 µg/mL | > 256 µg/mL | > 256 µg/mL | –
